Data as given in patent publication US20220184071A1, “GEPOTIDACIN FOR USE IN THE TREATMENT OF BACTERIAL URINARY TRACT INFECTIONS” (GlaxoSmithKline Intellectual Property Development Limited, priority 2019, published 2022).
Converted amounts (≈) assume the structure as drawn. Where two headings read alike, the source gives them in different places.

Assays:
K. pneumoniae = assay: Phase IIa baseline uropathogen susceptibility testing (CLSI broth microdilution); assay type: cell-based, Klebsiella pneumoniae; conditions: Klebsiella pneumoniae; Participant 7; read-out: GEP MIC
Experimental: This phase IIa single center study evaluated the safety, tolerability, pharmacokinetics, and efficacy of oral gepotidacin 1500 mg BID for 5 days in female subjects with acute cystitis. Clean catch mid-stream urine specimens were obtained for quantitative culture by standard methods. Urine samples were taken from all participants pre-treatment (baseline) and at all post-baseline visits. All urine samples were sent to a central laboratory (PPD Global Clinical Laboratories, Highland Heights, Ky., USA) for Gram stain, quantitative culture, pathogen identification and susceptibility testing. See FIG. 1 for participant disposition and study outline.
Susceptibility testing by CLSI broth microdilution and gradient diffusion (fosfomycin only) was conducted (CLSI, 2015, Methods for dilution antimicrobial susceptibility tests for bacteria that grow aerobically; approved standard-tenth edition; and CLSI, 2018. Performance Standards for Antimicrobial Susceptibility Testing; Twenty-seventh Informational Supplement M100-S28). Inclusion in the microbiological intent-to-treat population (micro-ITT), required growth of a qualifying baseline uropathogen (≥10^5 CFU/mL). See FIG. 2 for the baseline algorithm.

S. saprophyticus = assay: MIC by CLSI agar dilution, Example 1 Method 2; assay type: cell-based, Staphylococcus saprophyticus
Experimental: Antimicrobial activity was determined in a second study by […] using the CLSI recommended procedure in serial two-fold dilutions and the minimum inhibitory concentration (MIC) was determined as the lowest concentration of the compound that inhibited visible growth.
This study tested gepotidacin by CLSI agar dilution against 51 isolates of S. saprophyticus collected between 2005-2018.
Amikacin, ceftazidime, colistin, fosfomycin, levofloxacin, meropenem, nitrofurantoin and trimethoprim-sulfamethoxazole were included as comparators. MICs for and comparators were determined by agar dilution according CLSI methods.
MICs were determined according to CLSI agar dilution guidelines.

S. epidermidis = assay: MIC by CLSI broth microdilution, Example 5 second study (skin and soft tissue isolates); assay type: cell-based; conditions: Staphylococcus epidermidis; 13 isolates, 2013-2014
Excerpt: A second study tested gepotidacin by CLSI broth microdilution against bacterial isolates collected from patients with acute bacterial skin and soft tissue infections between 2013-2014. Amoxicillin/clavulanic acid, linezolid, fusidic acid, ceftriaxone, ceftaroline, vancomycin, penicillin, quinupristin/dalfopristin, erythromycin, clindamycin, meropenem, tetracycline, chloramphenicol, flucloxacillin, telavancin, daptomycin, trimethoprim/sulfamethoxazole, gentamicin, levofloxacin, tigecycline and cefuroxime were included as comparators. MICs were determined by broth microdilution according to CLSI methods.

E. coli = assay: Gepotidacin MIC90 for common uUTI pathogens (stated in conclusions); assay type: cell-based; conditions: Escherichia coli
E. coli ALL = assay: Immunocompetent mouse kidney infection (pyelonephritis/UTI) model PK/PD; assay type: in vivo
Experimental: (§1) PK and PD studies using gepotidacin were conducted in murine (male CD-1 mice) thigh and kidney infections. The administered doses ranged from 1 to 200 mg/kg SC every 6 hours starting 1h post infection. Infected tissues were evaluated for bacterial burden at 24 h post infection (baseline controls at 1 h post infection).
Efficacy was determined against E. coli ALL, 997577, ATCC25922, IR5 and NCTC13441 (MICs of 1 to 4 μg/mL) in thigh-infected neutropenic (I−) mice and against E. coli ALL in kidney-infected immunocompetent (I+) and I− mice. The PopPK model was used to determine GEP exposures associated with efficacy. PK-PD analyses were conducted using Phoenix WinNonLin 6.3 (Pharsight). The change in login colony forming units (CFU) from baseline were correlated with free drug (f) AUC:MIC using an inhibitory model from the Phoenix library, and model parameter values for each isolate were used to calculate the plasma fAUC:MIC associated with stasis, 1- or 2-login reductions in CFU.
PD studies were conducted using thigh and/or kidney infection models in neutropenic or competent mice (N=5/group). Mice were infected with a bacterial suspension in log phase: 100 μL in the left thigh muscle or 50 μL in each of both kidneys (100 μl total). Final inocula across all isolates were 6.0 to 7.0 login CFU/mouse. Dose-ranging studies were conducted with 5 isolates (see Table 1). Starting 1 hr after infection, GEP was given SC (0.2 mL/mouse) at discrete doses of 1-200 mg/kg every 6 hours (q6) for a 24-hour period (4 doses in total). Mice were euthanized 24 hr after start of therapy (6 hr after the last dose), and infected thighs or kidneys were processed to determine viable bacterial counts (CFU). Baseline CFU were obtained from untreated mice at 1 hr post infection and growth control CFU from saline-treated mice at 24 hr.
NCA analyses were conducted with the simulated data.
PK-PD analysis was conducted using Phoenix WinNonLin 6.3 (Pharsight): • Log10 colony forming units (CFU) from each group were correlated with PK-PD parameters using several inhibitory models from the Phoenix library. • Model parameter values for each isolate were used to calculate the PK-PD parameter value associated with stasis, 1-log or 2-log reductions from baseline 1 h controls.

[1] = Pharmacokinetics in infected mice (plasma, kidney, thigh; PopPK); assay type: in vivo, mouse
Experimental: as §1
Plasma and tissue samples (kidney or thigh homogenates) were collected at 15, 30, 60, 120, 240 and 360 minutes. A population PK (PopPK) model was built in NONMEM using plasma exposures.
Specific pathogen free male CD-1 mice weighing ˜27 g were used throughout the PK and PD studies. For most studies, mice were rendered neutropenic with two IP doses of cyclophosphamide on day −4 (150 mg/kg) and day −1 (100 mg/kg). Plasma and tissue samples (kidney and/or thigh) were collected at 15, 30, 60, 120, 240 and 360 minutes post dose from competent or neutropenic infected mice (N=3/group) following a single subcutaneous (SC) dose of 6.25-200 mg/kg. Samples were assayed by LC/MS/MS; the lower limit of quantification was 0.05 ug/mL.
Non-compartmental Analysis (NCA): plasma NCA was conducted using Phoenix WinNonLin 6.3 (Pharsight) with the linear up log down method.
Population Pharmacokinetics (PopPK): • Total drug concentrations in plasma were converted to free drug values based on protein binding of 24% in mice. • A PopPK model was built to describe the drug exposure in plasma over time using NONMEM (7.3) and the software R (version 3.4.0) for diagnostic plots. • The final model was used to simulate exposures at the multiple dose levels evaluated in the efficacy studies.

O=c1ccc2ncc(=O)n3c2n1C[C@H]3CN1CCC(NCc2cc3c(cn2)OCCC3)CC1 [gepotidacin, (2R)-2-({4-[(3,4-dihydro-2H-pyrano[2,3-c]pyridin-6-ylmethyl)amino]-1-piperidinyl}methyl)-1,2-dihydro-3H,8H-2a,5,8a-triazaacenaphthylene-3,8-dione]
MIC (K. pneumoniae): 4 µg/mL (≈ 8.92 µM) | % of isolates with MIC ≤0.125 mg/L (S. saprophyticus; 51 isolates): 100% | MIC90 (S. saprophyticus; Staphylococcus saprophyticus, 51 isolates collected 2005-2018, read-out: MIC90): 0.125 µg/mL (≈ 0.279 µM) | MIC (S. saprophyticus; Staphylococcus saprophyticus, 51 isolates, read-out: MICs for all S. saprophyticus): ≤ 0.125 µg/mL | MIC50 (S. saprophyticus; Staphylococcus saprophyticus, n = 51): ≤ 0.06 µg/mL | MIC90 (S. saprophyticus; n = 51): 0.125 µg/mL (≈ 0.279 µM) | Number of Isolates at Gepotidacin MIC ≤0.25 mg/L (S. saprophyticus; n = 51): 51 | MIC90 (S. epidermidis): 0.25 µg/mL (≈ 0.557 µM) | MIC90 (E. coli): 4 µg/mL (≈ 8.92 µM) | PK-PD target (fAUC/MIC) in immunocompetent vs neutropenic mice (E. coli ALL; I+ (non-neutropenic) mice): reduced by approx. half | Daily fAUC/MIC for 1-log Drop (E. coli ALL; Strain ALL, Competent UTI): 3.3 | Daily fAUC/MIC for 2-log Drop (E. coli ALL; Strain ALL, Competent UTI): 8.1 | Daily fAUC/MIC for Stasis (E. coli ALL; Strain ALL, Competent UTI): 0.7 | duration of infusion ([1]; PopPK final parameter estimate, plasma): 0.262 h | AUC0-6 in kidney, fold higher than in plasma ([1]; SC dosing, infected mice): 4- to 5 fold | AUC0-6 in thigh relative to plasma ([1]; SC dosing, infected mice): approximately half of plasma | clearance ([1]; male, CD-1, mouse, subcutaneous, PopPK final parameter estimate, plasma): 1.73 mL/min | Vd ([1]; male, CD-1, mouse, subcutaneous, PopPK final parameter estimate, plasma, read-out: volume of distribution): 0.151 L | fraction unbound ([1]; mouse, plasma, mice, read-out: protein binding (converted)): 0.76
